Earlier results as cited in patent US20260283918A1, “AZELAIC ACID/BETAINE/PANTHENOL SELF-RECOGNITION DES SYSTEM AND PREPARATION METHOD” (Wuxi Zhiyan Biotechnology Co., LTD, priority 2023, published 2026).

Conditions: water and oil

O=C(O)CCCCCCCC(=O)O [azelaic acid]
solubility of azelaic acid: poor solubility in both water and oil
